Measurements taken from patent US5750556A, “2-(aminomethyl)-3,4,7,9-tetrahydro-2H-pyrano-[2,3-E]indol-8-ones and derivatives” (priority 1996, dated 1998).

Target: T1, dopamine autoreceptor (D2 Quin.) (Rattus norvegicus, UniProt P61169)
T1 construct: homogenized rat striatal brain tissue is incubated; from tissue; host or cells: rat striatum, homogenate
Assay: [3H]-quinpirole binding, rat striatal homogenate (D2 Quin., dopamine autoreceptor affinity)
Conditions: homogenized rat striatal brain tissue, read-out: IC50 (nM) D2 Qmin.

T1 sequence (P61169 whole entry): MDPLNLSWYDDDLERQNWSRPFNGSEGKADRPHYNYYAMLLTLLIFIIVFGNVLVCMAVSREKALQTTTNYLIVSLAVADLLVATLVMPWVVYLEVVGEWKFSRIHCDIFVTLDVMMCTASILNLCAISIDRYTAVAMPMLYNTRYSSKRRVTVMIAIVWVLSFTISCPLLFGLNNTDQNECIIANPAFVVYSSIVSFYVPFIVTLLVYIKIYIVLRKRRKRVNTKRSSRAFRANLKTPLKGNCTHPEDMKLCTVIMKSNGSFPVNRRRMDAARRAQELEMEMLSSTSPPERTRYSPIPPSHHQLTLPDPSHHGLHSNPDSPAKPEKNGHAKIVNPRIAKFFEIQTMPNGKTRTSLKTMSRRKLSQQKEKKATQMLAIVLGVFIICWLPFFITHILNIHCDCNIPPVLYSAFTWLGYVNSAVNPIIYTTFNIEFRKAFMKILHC

SMILES	IC50 [nM]
O=C1Cc2c(ccc3c2OC(CNCc2ccc(Cl)cc2)CC3)N1 (stereo not drawn) [Example 1e, 2-(4-Chloro-benzylamino-methyl)-3,4,7,9-tetrahydro-2H-pyrano[2,3-e]indol-8-one]	0.65

Target: T2, dopamine D2 receptor (Rattus norvegicus, UniProt P61169)
T2 construct: from tissue; host or cells: limbic brain tissue, homogenate
T2 sequence (P61169 whole entry): as above
Assay: [3H]-spiperidone binding, limbic brain homogenate (D2 Spiper)
Conditions: homogenized limbic brain tissue
Method: High affinity for the dopamine D2 receptor was established by the standard experimental test procedure of Fields, et al., Brain Res., 136, […] (1977) and Yamamura et al., ed., Neurotransmitter Receptor Binding, Raven Press, N.Y. (1978) wherein homogenized limbic brain tissue is incubated with [^3 H]-spiperidone at various concentrations of test compound, filtered washed, and shaken with Hydrofluor scintillation cocktail (National Diagnostics) and counted in a Packard 460 CD scintillation counter.

SMILES	IC50 [nM]
O=C1Cc2c(ccc3c2OC(CNCc2ccc(F)cc2)CC3)N1 (stereo not drawn) [Example 1b, 2-(4-Fluoro-benzylamino-methyl)-3,4,7,9-tetrahydro-2H-pyrano[2,3-e]indol-8-one]	310
Cc1ccc(CNCC2CCc3ccc4c(c3O2)CC(=O)N4)c(C)c1 (stereo not drawn) [Example 1f, 2-(2,4-Dimethyl-benzylamino-methyl)-3,4,7,9-tetrahydo-2H-pyrano[2,3-e]indol-8-one]	392
O=C1Cc2c(ccc3c2OC(CNCc2ccccc2)CC3)N1 (stereo not drawn) [Example 1a, 2-(Benzylamino-methyl)-3,4,7,9-tetrahydro-2H-pyrano-[2,3-e]indol-8-one]	142
O=C1Cc2c(ccc3c2OC(CNCc2ccccc2)CC3)N1 (single isomer, unassigned; (-)) [Example 2b, (-)-2-(benzylamino-methyl)-3,4,7,9-tetrhydro-2H-pyrano[2,3-e]indol-8-one]	71.5
COc1ccc(CNCC2CCc3ccc4c(c3O2)CC(=O)N4)cc1 (stereo not drawn) [Example 1c, 2-(4-Methoxy-benzylamino-methyl)-3,4,7,9-tetrahydro-2H-pyrano[2,3e]indol-8-one]	295
Cc1ccc(CNCC2CCc3ccc4c(c3O2)CC(=O)N4)cc1 (stereo not drawn) [Example 1d, 2-(4-Methyl-benzylamino-methyl)-3,4,7,9-tetrahydro-2H-pyrano[2,3-e]indol8-one]	103
O=C1Cc2c(ccc3c2OC(CNCc2ccccc2)CC3)N1 (single isomer, unassigned; (+)) [Example 2a, (+)-2-(benzylamino-methyl)-3,4,9-tetrhydro-2H-pyrano[2,3-e]indol-8-one]	734
O=C1Cc2c(ccc3c2OC(CNCc2ccc(Cl)cc2)CC3)N1 (stereo not drawn) [Example 1e, 2-(4-Chloro-benzylamino-methyl)-3,4,7,9-tetrahydro-2H-pyrano[2,3-e]indol-8-one]	148
